Experimental data published in patent publication US10851083B2, “Benzoimidazoles as prolyl hydroxylase inhibitors” (Janssen Pharmaceutica NV, priority 2008, dated 2020).

Key:
human PHD2181-417 = human PHD2181-417 (Homo sapiens (Human), UniProt Q9GZT9); assay: PHD2 enzyme activity assay ([14C]-succinic acid production); format: biochemical; details: PHD2181-417 polypeptide, HIF-1α peptide 10 μM, [5-14C]-2-oxoglutaric acid, 30 min pre-incubation, tested 10 μM to 3 nM;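 also: reaction ran 10 min with compound in Tris pH 7.5 buffer with catalase, DTT and ascorbate, labelled succinate freed of leftover 2-oxoglutarate by DNP precipitation, then beta counted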
Sequence of human PHD2181-417 (Q9GZT9 181-417): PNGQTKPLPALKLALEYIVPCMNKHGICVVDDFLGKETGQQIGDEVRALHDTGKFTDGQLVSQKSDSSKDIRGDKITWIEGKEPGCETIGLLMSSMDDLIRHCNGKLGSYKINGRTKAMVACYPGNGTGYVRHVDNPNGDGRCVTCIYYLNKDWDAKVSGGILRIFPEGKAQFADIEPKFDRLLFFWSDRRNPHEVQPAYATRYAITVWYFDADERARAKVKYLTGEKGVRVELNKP

Hep-3B cells = assay: Cellular assay: EPO secretion in Hep-3B cells; format: cell-based, human; set-up: EPO secretion, % of control compound: dose or concentration left out as unconfirmed; details: Homo sapiens, Hep3B, 24 h, EPO secretion as percentage of control compound 7-[(4-Chloro-phenyl)-(5-methyl-isoxazol-3-ylamino)-methyl]-quinolin-8-ol, read-out: Cellular % EPO Stimulation

Row | Enzyme pIC50 (human PHD2181-417) | IC50 (human PHD2181-417; read-out: Enzyme pIC50 (converted)) [nM] | SMILES | EPO secretion, % of control compound (Hep-3B cells) [%]
1 | 7 | – | O=C(O)c1cnn(-c2nc3cc(SCCN4CCOCC4)c(Cl)cc3[nH]2)c1 [Example 166, 1-[6-Chloro-5-(2-morpholin-4-yl-ethylsulfanyl)-1H-benzoimidazol-2-yl]-1H-pyrazole-4-carboxylic Acid] | 15.1
2 | 5.3 | – | O=C(O)c1cnn(-c2nc3c(Cl)ncnc3[nH]2)c1 [Example 185, 1-(6-Chloro-9H-purin-8-yl)-1H-pyrazole-4-carboxylic Acid] | 11.7
3 | 6.8 | – | O=C(O)c1cnn(-c2nc3cc(SCc4ccc(F)cc4)c(Cl)cc3[nH]2)c1 [Example 68, 1-[6-Chloro-5-(4-fluoro-benzylsulfanyl)-1H-benzoimidazol-2-yl]-1H-pyrazole-4-carboxylic Acid] | 58.4
4 | 6.7 | – | O=C(O)c1cnn(-c2nc3cc(N4CCCC4)c(Cl)cc3[nH]2)c1 [Example 43, 1-(6-Chloro-5-pyrrolidin-1-yl-1H-benzoimidazol-2-yl)-1H-pyrazole-4-carboxylic Acid] | 178
5 | 6.8 | – | CS(=O)(=O)Nc1cc2nc(-n3cc(C(=O)O)cn3)[nH]c2cc1Cl [Example 136, 1-(6-Chloro-5-methanesulfonylamino-1H-benzoimidazol-2-yl)-1H-pyrazole-4-carboxylic Acid] | 9
6 | 7.4 | – | O=C(O)c1cnn(-c2nc3cc(Sc4ccccc4)c(C(F)(F)F)cc3[nH]2)c1 [Example 159, 1-(5-Phenylsulfanyl-6-trifluoromethyl-1H-benzoimidazol-2-yl)-1H-pyrazole-4-carboxylic Acid] | 11
7 | 7.2 | – | O=C(O)c1cnn(-c2nc3cc(Oc4ccccc4)c(C(F)(F)F)cc3[nH]2)c1 [Example 56, 1-(5-Phenoxy-6-trifluoromethyl-1H-benzoimidazol-2-yl)-1H-pyrazole-4-carboxylic Acid] | 143
8 | 7.6 | – | COc1ccc(S(=O)(=O)c2cc3nc(-n4cc(C(=O)O)cn4)[nH]c3cc2C(F)(F)F)cc1 [Example 162, 1-[5-(4-Methoxy-benzenesulfonyl)-6-trifluoromethyl-1H-benzoimidazol-2-yl]-1H-pyrazole-4-carboxylic Acid] | 45.8
9 | 7 | – | CCCSc1cc2[nH]c(-n3cc(C(=O)O)cn3)nc2cc1Cl [Example 78, 1-(5-Chloro-6-propylsulfanyl-1H-benzoimidazol-2-yl)-1H-pyrazole-4-carboxylic Acid] | 125
10 | 7.7 | – | N#Cc1ccccc1-c1ccc(CS(=O)(=O)c2cc3nc(-n4cc(C(=O)O)cn4)[nH]c3cc2Cl)cc1 [Example 181, 1-[6-Chloro-5-(2′-cyano-biphenyl-4-ylmethanesulfonyl)-1H-benzoimidazol-2-yl]-1H-pyrazole-4-carboxylic Acid] | –
11 | 7 | – | CCCSc1cc2[nH]c(-n3cc(C(=O)O)cn3)nc2cc1OC(F)(F)F [Example 81, 1-(6-Propylsulfanyl-5-trifluoromethoxy-1H-benzoimidazol-2-yl)-1H-pyrazole-4-carboxylic Acid] | –
12 | 7.5 | – | N#Cc1ccccc1-c1ccc(CSc2cc3nc(-n4cc(C(=O)O)cn4)[nH]c3cc2Cl)cc1 [Example 172, 1-[6-Chloro-5-(2′-cyano-biphenyl-4-ylmethylsulfanyl)-1H-benzoimidazol-2-yl]-1H-pyrazole-4-carboxylic Acid] | –
13 | 7 | – | CC(C)Sc1cc2[nH]c(-n3cc(C(=O)O)cn3)nc2cc1OC(F)(F)F [Example 80, 1-(6-Isopropylsulfanyl-5-trifluoromethoxy-1H-benzoimidazol-2-yl)-1H-pyrazole-4-carboxylic Acid] | –
14 | – | 200 | Cc1ccc(CSc2cc3nc(-n4cc(C(=O)O)cn4)[nH]c3cc2Cl)cc1 [Example 169, 1-[6-Chloro-5-(4-methyl-benzylsulfanyl)-1H-benzoimidazol-2-yl]-1H-pyrazole-4-carboxylic Acid] | –
